What was measured:
[1] = 18FDG brain uptake (PET); assay type: in vivo, rat; settings: 60 minutes after injection
Description: No post-reconstruction filtering was applied.

[2] = tested on: P-glycoprotein (P-gp) at the blood-brain barrier; assay: Population mixed effects modelling (NONMEM) of (R)-[11C]verapamil brain kinetics
Description: Rats from the different groups were randomly assigned to experimental days and scanned in pairs for 60 minutes using a double LSO/LYSO layer High Resolution Research Tomograph (HRRT, CTI/Siemens, Knoxville, TN, USA) [37]. […] The other half was treated only with vehicle (3 mL/kg). […] The purpose of the ^18FDG scan was to outline the brain to aid in defining regions of interest. The HRRT scanner acquires data in list mode, enabling post-scan definition of the frame sequence. The final frame sequence used for analysis was 6 × 10, 2 × 30, 3 × 60, 2 × 150, 2 × 300 and 4 × 600 seconds. Studies were reconstructed using an iterative 3 D ordered-subsets weighted least-squares (3D-OSWLS) method with 8 iterations and 16 subsets [39]. No post-reconstruction filtering was applied. […]
PET image data were analyzed using the freely available software package Amide 0.8.22 [44]. […] To correct for an intravascular contribution, radioactivity measured in whole blood was exponentially interpolated to obtain blood radioactivity values at each mid frame time point and then subtracted from the brain time-activity curves, assuming that cerebral blood volume was 3% of the total brain volume [45]. […]
(§1) The NONMEM model was constructed in two steps. […] One, two and three compartment models were evaluated. […] Again, one and two compartment models were evaluated, and treatment, rat group and animal weight were included as covariates. […]

[3] = tested on: Sprague-Dawley rats; assay: Kainate-induced status epilepticus; assay type: in vivo, rat
Description: Adult male Sprague-Dawley rats (n = 50, Harlan, Horst, The Netherlands) weighing 200-224 g at arrival were housed in groups of 5-6 per cage until treatment. They were kept at a constant temperature of 21°C and at a 12 h light/dark cycle, in which lights were switched on at 8:00 AM. Animals had unrestricted access to food (Teklad Global 16% Protein Rodent Diet, Harlan, Madison, WI, USA) and water. Animal procedures were performed in accordance with Dutch laws on animal experimentation. All experiments were approved by the Ethics Committee for Animal Experiments of Leiden University (approval number UDEC08178). After approximately one week of habituation and 7 days prior to PET investigation rats were treated with either kainic acid (5 mg/mL) or saline. Kainic acid was administered repeatedly as a 10 mg/kg (2 mL/kg) i.p. injection followed by 5 mg/kg (1 mL/kg) i.p. every 30-60 minutes until stage IV seizures according to Racine's scale occurred, or when a total amount of 30 mg/kg kainic acid was reached. Control rats were treated with 3 saline i.p. injections using the same volumes as for the kainate treated rats, 30 minutes apart. After treatment rats were housed individually.

[4] = tested on: P-glycoprotein (P-gp); assay: P-gp expression in brain capillaries (immunohistochemistry, C219); assay type: in vivo, rat; settings: kainate vs saline treated rats, 7 days after treatment; cortex and hippocampus CA1
[5] = Population mixed effects modelling (NONMEM) of (R)-[11C]verapamil plasma kinetics; settings: tariquidar 15 mg/kg i.v. co-administration vs vehicle
Description: Plasma time-activity curves were corrected for tracer metabolism before they were used as input for kinetic modelling. […] Two types of corrections were used: (1) complete metabolite correction and (2) correction only for polar metabolites. […] Mathematically, this is described by the following equations:
Nonlinear mixed effects modelling, using NONMEM VI (GloboMax LLC, Hanover, MD, USA), provide a tool for analyzing repeated measurements data in which the relationship between the explanatory and response variables can be modeled as a single function, allowing the parameters to differ between individuals. In addition, these techniques recognize that the variability associated with the response variable for a given individual may depend on the response value in a way that is similar for all individuals. This could be due, for example, to properties associated with measurement error.
Data from all rats was processed simultaneously. The subroutine ADVAN 9 and first-order conditional estimation with interaction were used throughout the modelling procedure. […]
as §1

[6] = Tariquidar plasma concentration (LC/MS); assay type: in vivo; settings: Sprague-Dawley, rat, intravenous, 15 mg/kg, 2 hours after tariquidar 15 mg/kg i.v., mean ± s.d.

O=C[C@H]([18F])[C@@H](O)[C@H](O)[C@H](O)CO [^18FDG]
18FDG brain uptake, SUV ([1]; kainate treated rats, mean ± s.d.): 2.0 ± 0.4 | 18FDG brain uptake, SUV ([1]; saline treated rats, mean ± s.d.): 1.6 ± 0.3 | 18FDG brain uptake, SUV ([1]; with or without tariquidar co-administration (both groups)): 1.8 ± 0.4

C=C(C)[C@H]1CN[C@H](C(=O)O)[C@H]1CC(=O)O [kainic acid]
Covariate kainate on Vbr1 of (R)-[11C]verapamil (fractional difference) ([2]; kainate vs saline treated rats, 7 days after treatment): 1.32 (0.416) | increase of Vbr1 of (R)-[11C]verapamil in kainate treated compared to saline treated rats ([2]; population model, rat group as covariate, 7 days after kainate): 32% | duration of seizures ([3]; after kainic acid i.p.): 1 to 2 h | seizure stage reached (Racine's scale) ([3]; kainic acid i.p. 10 mg/kg then 5 mg/kg every 30-60 minutes, all rats, except one): stage IV-V seizures | rats that died as a result of treatment ([3]; kainic acid i.p., up to 30 mg/kg): Four | time to status epilepticus after the last injection ([3]; typically 3 injections, i.e. 20 mg/kg i.p.): ≤ 20 min | P-gp expression, P-gp labelled surface area [4]: trend towards higher P-gp expression | P-gp expression, optical density [4]: no difference

COc1cc2c(cc1OC)CN(CCc1ccc(NC(=O)c3cc(OC)c(OC)cc3NC(=O)c3cnc4ccccc4c3)cc1)CC2 [tariquidar, Tariquidar]
Covariate tariquidar on Vp1 of (R)-[11C]verapamil (fractional difference) [5]: 1.20 (0.119) | concentration at 2 h ([6]; kainate group): 1600 ± 300 ng/mL | concentration at 2 h ([6]; saline group): 1800 ± 300 ng/mL
